This note sets out measurements from patent US20180169019A1, “PROCESS FOR THE PREPARATION OF POROUS MICROPARTICLES” (BAYER PHARMA AKTIENGESELLSCHAFT, priority 2015, published 2018).

This data set is described as follows: Solubility in water and organic solvents. The class given is physicochemical.

Take `O=C(O)CCCCN(CCc1ccccc1OCc1ccc(CCc2ccccc2)cc1)Cc1ccc(C(=O)O)cc1` [Cinaciguat, 4-[((4-carboxybutyl)-{2-[(4-phenethylbenzyl)oxy]phenethyl}amino)methyl]benzoic acid]: the solubility in acetone result is on record as “slightly soluble”; the “solubility in ethanol, methanol, ethyl acetate” value is reported as “very slightly soluble”; the “solubility in water and dichloromethane, acetonitrile” value was “practically insoluble”.
